According to PMC6979384, “Characterization of the plant homeodomain (PHD) reader family for their histone tail interactions” (Epigenetics & Chromatin, 2020):

Legend:
Experiment in all cases: Histone peptide microarray
Type in all cases: binding, human
Details in all cases: histone peptide array, arrays performed twice, n of 4
PHRF1 (RP) = system: PHRF1 (RP)
Outline: (§1)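 Steps: express and purify GST-tagged PHD reader; incubate 0.5 μM protein on a peptide microarray (293 histone peptides, single or combined PTMs) following an optimized protocol; average signal across 4 replicates.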

PHF8 = system: PHF8
Outline: as §1

PHF2 = system: PHF2
Outline: as §1

KDM5A (1) = system: KDM5A (1)
Outline: as §1

MORC3 (CW) = system: MORC3 (CW)
Outline: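 A peptide microarray holding 293 synthetic histone peptides with individual or combinatorial modifications was probed with each GST-PHD protein at 0.5 μM. Values represent mean intensity (±SD) from four replicates.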

PHF23 = system: PHF23
Outline: as §1

KDM4C (TTP) = system: KDM4C (TTP)
Outline: as §1

PHF21A = system: PHF21A
Outline: as §1

KDM7A = system: KDM7A
Outline: as §1

DIDO1 = system: DIDO1
Outline: as §1

ING4 = system: ING4
Outline: as §1

TRIM66 (PB) = system: TRIM66 (PB)
Outline: as §1

PHF13 = system: PHF13
Outline: as §1

KDM5B (3) = system: KDM5B (3)
Outline: as §1

BAZ2B = system: BAZ2B
Outline: as §1

KDM5A (3) = system: KDM5A (3)
Outline: as §1

ING2 = system: ING2
Outline: as §1

CHD4 (PPCC) = system: CHD4 (PPCC)
Outline: as §1

RAG2 = system: RAG2
Outline: as §1

SP140L = system: SP140L
Outline: as §1

MLL5 = system: MLL5
Outline: as §1

KDM5B (1) = system: KDM5B (1)
Outline: as §1

ING5 = system: ING5
Outline: as §1

ING1 = system: ING1
Outline: as §1

AIRE (PP) = system: AIRE (PP)
Outline: as §1

BPTF (PB) = system: BPTF (PB)
Outline: as §1

CHD5 (PCC) = system: CHD5 (PCC)
Outline: as §1

ING3 = system: ING3
Outline: as §1

DPF2 (PPC2W2) = system: DPF2 (PPC2W2)
Outline: as §1

TAF3 = system: TAF3
Outline: as §1

CHD5 (PPCC) = system: CHD5 (PPCC)
Outline: as §1

[1] = GST-tagged reader, PB = PHD + Bromodomain
[2] = GST-tagged reader, PPCC = Dual PHD + Dual Chromodomain

H3Cit2 + K4me3 + K9ac + K14ac + K18ac: H3 1-20
Array Heatmap signal, PHRF1 (RP) (PHRF1 (RP); GST-tagged PHRF1 (RP)): 0.4303 | Array Heatmap signal, PHF8 (PHF8; GST-tagged PHF8): 0.4072 | Array Heatmap signal, PHF2 (PHF2; GST-tagged PHF2): 0.7451 | Array Heatmap signal, KDM5A (1) (KDM5A (1); GST-tagged KDM5A (1)): 0.4209 | Array Heatmap signal, MORC3 (CW) (MORC3 (CW); GST-tagged MORC3 (CW = CW-type Zn-finger)): 0.4875 | Array Heatmap signal, PHF23 (PHF23; GST-tagged PHF23): 0.5313 | Array Heatmap signal, KDM4C (TTP) (KDM4C (TTP); GST-tagged KDM4C (TTP = Tandem Tudor domain + PHD)): 0.4327 | Array Heatmap signal, PHF21A (PHF21A; GST-tagged PHF21A): 0.4881 | Array Heatmap signal, KDM7A (KDM7A; GST-tagged KDM7A): 0.3427 | Array Heatmap signal, DIDO1 (DIDO1; GST-tagged DIDO1): 0.8494 | Array Heatmap signal, ING4 (ING4; GST-tagged ING4): 0.4376 | Array Heatmap signal, TRIM66 (PB) (TRIM66 (PB); GST-tagged TRIM66 (PB = PHD + Bromodomain)): 0.557 | Array Heatmap signal, PHF13 (PHF13; GST-tagged PHF13): 0.5903 | Array Heatmap signal, KDM5B (3) (KDM5B (3); GST-tagged KDM5B (3)): 0.4827 | Array Heatmap signal, BAZ2B (BAZ2B; GST-tagged BAZ2B): 0.483 | Array Heatmap signal, KDM5A (3) (KDM5A (3); GST-tagged KDM5A (3)): 0.5236 | Array Heatmap signal, ING2 (ING2; GST-tagged ING2): 0.6235 | Array Heatmap signal, CHD4 (PPCC) (CHD4 (PPCC); GST-tagged CHD4 (PPCC = Dual PHD + Dual Chromodomain)): 0.6008 | Array Heatmap signal, RAG2 (RAG2; GST-tagged RAG2): 0.3489 | Array Heatmap signal, SP140L (SP140L; GST-tagged SP140L): 0.3551 | Array Heatmap signal, MLL5 (MLL5; GST-tagged MLL5): 0.6331 | Array Heatmap signal, KDM5B (1) (KDM5B (1); GST-tagged KDM5B (1)): 0.5319 | Array Heatmap signal, ING5 (ING5; GST-tagged ING5): 0.327 | Array Heatmap signal, ING1 (ING1; GST-tagged ING1): 0.5664 | Array Heatmap signal, AIRE (PP) (AIRE (PP); GST-tagged AIRE (PP)): 0.3964 | Array Heatmap signal, BPTF (PB) (BPTF (PB); GST-tagged BPTF (PB = PHD + Bromodomain)): 0.3451 | Array Heatmap signal, CHD5 (PCC) (CHD5 (PCC); GST-tagged CHD5 (PCC = PHD + Dual Chromodomain)): 0.7154 | Array Heatmap signal, ING3 (ING3; GST-tagged ING3): 0.4771 | Array Heatmap signal, DPF2 (PPC2W2) (DPF2 (PPC2W2); GST-tagged DPF2 (PPC2W2 = Dual PHD + C2W2-type Zn-finger)): 0.6832 | Array Heatmap signal, TAF3 (TAF3; GST-tagged TAF3): 0.287 | Array Heatmap signal, CHD5 (PPCC) (CHD5 (PPCC); GST-tagged CHD5 (PPCC = Dual PHD + Dual Chromodomain)): 0.5144

H4 (1-24): H4 1-24
Array Heatmap signal, PHRF1 (RP) (PHRF1 (RP); GST-tagged reader): 0.5307 | Array Heatmap signal, PHF8 (PHF8; GST-tagged reader): 0.3446 | Array Heatmap signal, PHF2 (PHF2; GST-tagged reader): 0.4794 | Array Heatmap signal, KDM5A (1) (KDM5A (1); GST-tagged reader): 0.4479 | Array Heatmap signal, MORC3 (CW) (MORC3 (CW); GST-tagged reader, CW = CW-type Zn-finger): 0.3968 | Array Heatmap signal, PHF23 (PHF23; GST-tagged reader): 0.5274 | Array Heatmap signal, KDM4C (TTP) (KDM4C (TTP); GST-tagged reader, TTP = Tandem Tudor domain + PHD): 0.4748 | Array Heatmap signal, PHF21A (PHF21A; GST-tagged reader): 0.4744 | Array Heatmap signal, KDM7A (KDM7A; GST-tagged reader): 0.3276 | Array Heatmap signal, DIDO1 (DIDO1; GST-tagged reader): 0.6429 | Array Heatmap signal, ING4 (ING4; GST-tagged reader): 0.4561 | Array Heatmap signal, TRIM66 (PB) (TRIM66 (PB); [1]): 0.5969 | Array Heatmap signal, PHF13 (PHF13; GST-tagged reader): 0.6132 | Array Heatmap signal, KDM5B (3) (KDM5B (3); GST-tagged reader): 0.458 | Array Heatmap signal, BAZ2B (BAZ2B; GST-tagged reader): 0.4426 | Array Heatmap signal, KDM5A (3) (KDM5A (3); GST-tagged reader): 0.4381 | Array Heatmap signal, ING2 (ING2; GST-tagged reader): 0.5969 | Array Heatmap signal, CHD4 (PPCC) (CHD4 (PPCC); [2]): 0.5779 | Array Heatmap signal, RAG2 (RAG2; GST-tagged reader): 0.2506 | Array Heatmap signal, SP140L (SP140L; GST-tagged reader): 0.3819 | Array Heatmap signal, MLL5 (MLL5; GST-tagged reader): 0.528 | Array Heatmap signal, KDM5B (1) (KDM5B (1); GST-tagged reader): 0.6708 | Array Heatmap signal, ING5 (ING5; GST-tagged reader): 0.3526 | Array Heatmap signal, ING1 (ING1; GST-tagged reader): 0.5158 | Array Heatmap signal, AIRE (PP) (AIRE (PP); GST-tagged reader): 0.4377 | Array Heatmap signal, BPTF (PB) (BPTF (PB); [1]): 0.3511 | Array Heatmap signal, CHD5 (PCC) (CHD5 (PCC); GST-tagged reader, PCC = PHD + Dual Chromodomain): 0.7379 | Array Heatmap signal, ING3 (ING3; GST-tagged reader): 0.4908 | Array Heatmap signal, DPF2 (PPC2W2) (DPF2 (PPC2W2); GST-tagged reader, PPC2W2 = Dual PHD + C2W2-type Zn-finger): 0.6876 | Array Heatmap signal, TAF3 (TAF3; GST-tagged reader): 0.2583 | Array Heatmap signal, CHD5 (PPCC) (CHD5 (PPCC); [2]): 0.5427
